In data set [1] the test system is CD19+ Mantle cell lymphoma cell line, Jeko-1. Put plainly: CART19 cytotoxicity: co-culture of CART19 or UTD T cells with JeKo-1, percent killing. The data set is classed as cell-based, human. The method, then: FIGS. 1A-1C. […] CART19 and live JeKo-1 were co-cultured at 1:1 ratio for 24 hours in the presence of DMSO or vecabrutinib (1 μM or 10 μM). The percentage of killing were assessed relative to control (****p<0.0001, two-way ANOVA). […] CART19 and irradiated JeKo-1 were co-cultured at 1:1 ratio for 24 hours in the presence of DMSO or vecabrutinib (1 μM or 10 μM). Absolute CD3^+ T cell counts were assessed by flow cytometry (**p<0.01, two-way ANOVA) . […] JeKo-1 target cells were incubated with CART19 at a 5:1 ratio with monensin, hCD49d, and hCD28 in the presence of vecabrutinib at the indicated concentrations for 4 hours. Cells were then analyzed using intracellular flow cytometric assessment of CD107a as a marker for degranulation.
FIG. 10. CART19 cytotoxicity in the presence of Vecabrutinib versus the irreversible BTK inhibitor, Ibrutinib. CART19 or control cells (UTD) were cocultured at different effector-to-target ratio (E:T) with Jeko-1 cell line with vecabrutinib at 1 μM or 10 μM, or ibrutinib at 1 μM. At 24 hours, live Jeko cells numbers was measured by flow cytometry and percent killing was calculated relative to control (*p<0.05, **p<0.01, two-way ANOVA).
To investigate CAR T-specific cytotoxicity, CART19 cells or control UTD T cells were co-cultured with the CD19^+ Mantle cell lymphoma cell line, Jeko-1, at 1:1 ratio and treated with vehicle (DMSO) or vecabrutinib at 1 μM or 10 μM for 24 hours (FIG. 1A).
Measurement of CART19 killing of JeKo-1 cells at different effector to target ratios. […] Results were normalized to target cells incubated with the respective concentration of the BTK inhibitor alone (with no CART19) to eliminate the direct cytotoxic effect of the inhibitor on lymphoma cells without CART19. 10 μM of ibrutinib was not included as it caused 100% killing of CART19 cells and Jeko-1 cells (FIGS. 11A and 11B).

The subject of data set [2] is CART19 cells. Put plainly: CART19 proliferation: co-culture with irradiated JeKo-1, absolute CD3+ T cell counts by flow cytometry. It is filed as cell-based, human. Particulars: 1 μM. The method, then: FIGS. 11A-11B. Proliferation. […] CART19 and irradiated JeKo-1 were co-cultured at 1:1 ratio for 24 hours in the presence of DMSO or vecabrutinib (1 μM or 10 μM) or ibrutinib (1 μM or 10 μM). Absolute CD3^+T cell counts were assessed by flow cytometry (*p<0.05, ****p<0.0001, two-way ANOVA). FIG. 11B) To further verify effect of BTK inhibition on CART19 proliferation, using different set of donors for CAR T cell production, CART19 and irradiated JeKo-1 were co-cultured at 1:1 ratio for 24 hours in the presence of DMSO or vecabrutinib (10 μM) or ibrutinib (10 μM).
For proliferation assays, CART19 cells were cultured with irradiated CD19^+ cell line Jeko-1 at a 1:1 ratio for 24 hours. Then, the cells were harvested and washed with flow buffer, following by surface staining with anti-hCD3 (eBioscience, San Diego, CA, USA) and LIVE/DEAD™ Fixable Aqua Dead Cell Stain Kit (Invitrogen, Carlsbad, CA, USA). […] Absolute quantification was obtained using volumetric measurement or CountBright absolute counting beads (Invitrogen, Carlsbad, CA, USA). […]
Next, the effect of vecabrutinib on CART19 proliferation was assessed. CART19 cells were cocultured with irradiated JeKo-1 cells for 24 hours in the presence of vecabrutinib (1 μM or 10 μM), and the absolute count of CART19 was measured by flow cytometry and used as a surrogate for proliferation. […]
(In general: In flow cytometry, cells or beads pass a laser one at a time.)

Data set [3] deals with CART19 cells. As to the kind of experiment: RNA-Seq of CART19 cells stimulated with irradiated JeKo-1 (differential expression, Ingenuity Pathway Analysis). The conditions noted are these: 10 μM vs vehicle. The data set is classed as cell-based, human. The method, then:
CART19 and irradiated Jeko-1 cells were co-cultured at a 1:1 ration for 72 hours with DMSO or 10 μM Vecabrutinib. Three biological replicates of stimulated and unstimulated CART19 cells were included.
RNA was isolated using miRNeasy Micro kit (Qiagen, Gaithersburg, MD, USA) and treated with RNase-Free DNase Set (Qiagen, Gaithersburg, MD, USA). Total RNA was prepped with a SMARTer stranded total RNA-seq kit v2, Pico input mammalian (Takara, Mountain View, CA, USA). Total RNA (three samples per lane) was sequenced on an Illumina HiSeq 4000 (Illumina, San Diego, CA, USA). Library preparation and sequencing were performed by the Medical Genome Facility Genome, Analysis Core (Mayo Clinic, Rochester, MN, USA). Fastq files were viewed in FastQC v0.11.8 to check for quality. Adaptor sequences were removed using Cutadapt v1.18.46. Output files were re-checked for quality and adaptor removal using FastQC v0.11.8. The latest human (GRCh38) reference genomes were downloaded from NCBI. Genome index files were generated using STAR, and the paired end reads were mapped to the genome for each condition. HTSeq was used to generate expression counts for each gene, and DeSeq2 was used to calculate differential expression using adjusted p values <0.05. Heatmap was created using pheatmap (cran.r-project.org/web/packages/pheatmap/index.html). Networks were generated using Ingenuity Pathway Analysis v49932394 (QIAGEN, qiagenbioinformatics.com/products/ingenuity-pathway-analysis). Gene set enrichment analyses were performed using Enrichr (maayanlab.cloud/Enrichr/).
• Biological Replicates: C267, C278, C296 where CART19 cells were generated • Conditions: • Vehicle • 1 μM vecabrutinib • 10 μM vecabrutinib • Activated for 72 hours with Irradiated JeKo-1 (1:1 E:T Ratio) • mRNA was extracted from CART19 cells • RNA sequencing was performed
• FastQC (initial quality check) • Trimmomatic (trim adapters and overrepresented sequences) • FastQC (to confirm removal of the above) • STAR (align to the latest human genome annotation, GRCh38.p13) • HTSeq (obtain counts for each gene) • DESeq2 • Normalized counts across samples • Calculated differential expression between groups • Multiple hypothesis correction (Benjamini-Hochberg procedure)

In data set [4] the test system is luciferase+JeKo-1 cells. Put plainly: JeKo-1 xenograft model with CART19 plus oral vecabrutinib. The data set is classed as in vivo. The conditions noted are these: CART19 + vecabrutinib 50 mg/kg BID vs CART19 + vehicle, weekly weighing (FIG. 4C). Here is the method: FIGS. 4A-4C. Reversible BTK inhibition in vivo enhances CAR T cell antitumor activity in xenograft models. […] On day-14, NSG mice were injected with 1×10^6 luciferase+JeKo-1 cells intravenously. Gavage began on day −1 with vecabrutinib 50 mg/kg BID or vehicle. Untransduced T cells (UTD) or CART19 were infused on day 0. Mice were imaged weekly to assess the tumor burden. p/s=photons/seconds. […] Mice were bled weekly to measure CART19 by flow cytometry (*p<0.05, one-way ANOVA). FIG. 4C) Vecabrutinib decreases CRS. Mouse weight and wellbeing along with elevation of human cytokines represent a surrogate for the development of CRS intensity in mice receiving CART19. […]
6-8 week old, non-obese diabetic/severe combined immunodeficient female mice bearing a targeted mutation in the interleukin (IL)-2 receptor gamma chain gene (NSG) were obtained from Jackson Laboratories (Jackson Laboratories, Bar Harbor, ME, USA). […] Mice were weighed weekly, and measurements were recorded in grams. Tumor burden was measured weakly by imaging mice with a bioluminescent imager using an IVIS® Lumina S5 Imaging System (PerkinElmer, Hopkinton, MA, USA), and measurements were recorded in total flux (p/s). […] Absolute quantification was obtained using volumetric measurement or CountBright absolute counting beads (Invitrogen, Carlsbad, CA, USA). […]

“Also recorded” adds a separate entry of the source.

Consider `C=CC(=O)N1CCC[C@@H](n2nc(-c3ccc(Oc4ccccc4)cc3)c3c(N)ncnc32)C1` [ibrutinib], for which the “killing of CART19 cells and Jeko-1 cells” value in data set [1] (10 μM) is on record as 100%. Moreover, in data set [1] (different E:T ratios, 24 hours, vecabrutinib 1 μM or 10 μM, ibrutinib 1 μM, normalized to target cells with inhibitor alone (FIG. 10)), the “CART19-mediated killing of Jeko-1 lymphoma cells” value is “no effect”. Also, in data set [2] (irradiated JeKo-1 1:1, 24 hours (FIG. 11A)), the “CART19 proliferation (absolute CD3+ T cell count)” value is reported as “no effect”.

Consider `NC(=O)[C@H]1CCN(c2ncnc(N)c2F)C[C@@H]1N1CCC[C@@H](Nc2cc(Cl)cc(C(F)(F)F)c2)C1=O` [vecabrutinib], for which the “PI3K/AKT signaling z-score (Ingenuity Pathway Analysis)” value in data set [3] (72 hours (FIG. 5F, FIG. 9)) is given as 0.707. For the same molecule, in data set [3] (72 hours (FIG. 9)), the “IL-8 signaling pathway z-score (Ingenuity Pathway Analysis)” value is given as −1.941, the “PDGF signaling z-score (Ingenuity Pathway Analysis)” value is given as −1.667, the “PTEN signaling pathway Z-score (Ingenuity Pathway Analysis)” value is 0.333 and the “STAT 3 pathway z-score (Ingenuity Pathway Analysis)” value is reported as −3.051. In addition, in data set [3] (72 hours (FIG. 9)), the “TH1 pathway Z-score (Ingenuity Pathway Analysis)” value was found to be 0.816. Moreover, the “CART19-mediated killing of tumor cells (tumor specific cytotoxicity), percentage of killing relative to control” value in data set [1] (CART19:JeKo-1 1:1, 24 hours, 1 μM or 10 μM vs DMSO (FIG. 1A)) is reported as “increases CART19-mediated killing of tumor cells; also recorded: dose-dependent increase”. Further, the “CART19 antigen specific proliferation (absolute CD3+ T cell count)” value in data set [2] (irradiated JeKo-1 1:1, 24 hours (FIG. 1B)) is recorded as “no significant effect”. The “body weight change from day 0 (surrogate for CRS)” value in data set [4] is “decreases CRS; also recorded: better maintained their body weight”.
